Experimental data taken from patent publication US5187195A, “Anthraquinone derivatives and preparation thereof” (Fujisawa Pharmaceutical Co., Ltd., priority 1989, dated 1993).

What was measured:
[1] = target: T1, crude receptor membrane fractions of porcine aorta (^125 I-endothelin binding) (Sus scrofa, UniProt Q29010); assay: Radioligand binding assay (^125 I-Endothelin binding to porcine aorta membrane fractions); conditions: for IC50: concentration required to compete with ^125 I-endothelin (1.67×10^-11 M) for binding to porcine aorta membrane fractions by 50%, 60 minutes, room temperature, pH 7.5
T1 construct: tissue Pel-Freez Biologicals (U.S.A.); host or cells: porcine aorta, crude membrane fractions
T1 sequence (Q29010 21-427): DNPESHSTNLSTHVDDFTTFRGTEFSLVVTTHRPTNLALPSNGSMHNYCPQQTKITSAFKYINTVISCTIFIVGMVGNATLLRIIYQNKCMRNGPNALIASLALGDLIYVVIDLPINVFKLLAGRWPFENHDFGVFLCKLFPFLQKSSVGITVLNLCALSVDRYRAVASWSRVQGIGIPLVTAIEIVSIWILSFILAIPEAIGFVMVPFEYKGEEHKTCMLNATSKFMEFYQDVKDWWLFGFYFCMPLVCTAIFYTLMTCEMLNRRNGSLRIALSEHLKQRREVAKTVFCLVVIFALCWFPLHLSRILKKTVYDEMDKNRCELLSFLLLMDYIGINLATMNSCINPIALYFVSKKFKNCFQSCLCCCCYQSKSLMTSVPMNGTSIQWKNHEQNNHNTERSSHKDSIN
Protocol: Radioligand Binding Assay
(a) Preparation of crude receptor membrane fractions
Porcine aorta was purchased from Pel-Freez Biologicals (U.S.A.) and stored at -80° C. until use.
Porcine aorta (50 g) was thawed and dissected free from fatty tissue, minced with scissors and then homogenized with a polytron (Brinkmann PT-20, maximal speed for 3×10 sec) in 100 ml buffer (0.25 M sucrose, 10 mM Tris-HCl, 0.1 mM EDTA, pH 7.5).
The homogenate was centrifuged at 10,000 g for 20 minutes at 4° C.
The supernatant, containing the plasma membrane fraction, was centrifuged at 100,000 g for 60 minutes at 4° C., and then resultant pellets were referred to as crude membrane fractions.
The pellets were resuspended in 25 ml of binding assay buffer (50 mM Tris-HCl, 100 mM NaCl, 5 mM MgCl2, 1.5 μg/ml phenylmethylsulfonyl fluoride (PMSF), 120 μg/ml bacitracin, 12 μg/ml leupepcin, 6 μg/ml chymostain, 0.1% bovine serum albumin (BSA), pH 7.5)
The aorta membrane fractions were stored at -80° C. until use.
(b) ^125 I-Endothelin Binding Assay
^125 I-Endothelin (1.67×10^-11 M) (Amersham Japan, specific activity: 2000 Ci/m mol) was incubated with 50 μl of the aorta membrane fractions in binding assay buffer at room temperature (20°-22° C.) for 60 minutes in a final volume of 250 μl.
After incubation, the incubation mixture were filtered through Glass-fiber GF/C filter (pretreated with 0.1% polyethylene imine for 3 hours prior to use) using cell harvester (Brandel M-245). The filters were then washed ten times with a total of 3 ml of the washing buffer (50 mM Tris-HCl, pH 7.5) at 0° C. The filters were counted in a gamma counter (Packard Auto Gamma Model 5650).
The activity of test compounds was expressed as IC50 value, i.e. concentration required to compete with ^125 I-endothelin for binding to prorcine aorta membrane fractions by 50%.

[2] = Solubility; type: physicochemical
[3] = tested on: contraction response of rabbit thoracic aorta induced by endothelin; assay: Effect on rabbit aorta contraction response of endothelin (isolated strips); design: species or system rabbit (male albino); conditions: Oryctolagus cuniculus, endothelin 3.2×10^-9 M, % inhibition of maximum contraction, compound added after full contraction; for inhibition at 100 µM: 1 × 10^-4 M; for inhibition at 10 µM: 1 × 10^-5 M
Protocol: Effect of FR901366 Substance and FR901367 Substance on Rabbit Aorta of Contraction Response of Endothelin
Thoracic aorta were isolated from freshly killed male albino rabbits (11 weeks old) and cut into 25 mm strips with the intima denuded. After removing fatty tissues, these arterial segments (2 mm width and 25 mm length) were suspended in 25 ml organ chambers filled with Krebs-Ringer solution (113 mM NaCl, 4.8 mM KCl, 2.2 mM CaCl2, 1.2 mM MgCl2, 25 mM NaHCO3, 1.2 mM KH2 PO4, 5.5 mM glucose) maintained at 37° C. and gassed with 95% O2 /5% CO2.
A preload of 1 g was applied after the aorta had been conditioned by application of increasing concentration of KCl. Contractions were measured as an increase in isometric tension.
The test compound was tested against contraction response of endothelin (3.2×10^-9 M). Synthetic endothelin was obtained from Peptide Institute Inc. (Osaka, Japan). The test compound substance was added after the full contraction response induced endothelin.
The activity of the test compounds is expressed as the percentage inhibition of maximum contraction response induced by endothelin and shown in Table 7.

[4] = tested on: endothelin induced pressor response; assay: In vivo pressor effect in conscious rats (inhibition of endothelin induced pressor response); design: species or system rat (male Wister); conditions: 10 mg/kg i.v., 3 minutes before endothelin 2.4 μg/kg i.v., three rats
Protocol: Assay of In Vivo Pressor Effect in Conscious Rats
Male Wister rats (10 weeks old) were used. The mean arterial blood pressure was recorded from femoral artery via polyethylene catheter connected to the pressure transducer which was coupled to a Biophysiograph 180 system (Nihondenki-San-Ei Instrument Co., Ltd.).
FR901366 substance and endothelin were dissolved in saline and injected in bolus (0.2 ml) through polyethylene cateter inserted via femoral vein.
FR901366 substance was administered 3 minutes before the injection of endothelin. Inhibitory activity of FR90136 substance (10 mg/kg, i. v.) against endothelin (2.4 μg/kg, i. v.) induced pressor response was evaluated with a group of three rats and shown in Table 8.

SMILES: COC(=O)C(CSC12C(=O)c3c(O)cccc3C(=O)C1(O)C1(O)C(=O)C=C(C)CC1(O)CC2O)NC(C)=O (centres unmarked) [FR129795]
- IC50 [1]: 2.73 µM

SMILES: COC(=O)C(CSC12C(=O)c3c(O)cccc3C(=O)C1(O)C1(O)C(=O)C=C(C)CC1(O)CC2OC(C)=O)NC(C)=O (centres unmarked) [FR129796]
- IC50 [1]: 13.5 µM

SMILES: COC(=O)C(CSC12C(=O)c3c(OC(C)=O)cccc3C(=O)C1(O)C1(O)C(=O)C=C(C)CC1(O)CC2OC(C)=O)NC(C)=O (centres unmarked) [FR129797]
- IC50 [1]: 10.3 µM

SMILES: CC1=CC(=O)C2(O)C(O)(CCC3(SCC(N)C(=O)O)C(=O)c4c(O)cccc4C(=O)C32O)C1 (centres unmarked) [FR131132]
- Solubility ([2]; chloroform): insoluble
- Solubility ([2]; ethanol): sparingly soluble
- Solubility ([2]; methanol): sparingly soluble
- Solubility ([2]; n-hexane): insoluble
- Solubility ([2]; water): sparingly soluble
- IC50 [1]: 147 µM

SMILES: CC1=CC(=O)C2(O)C(O)(CCC3(SCC(NC(=O)c4ccccc4)C(=O)O)C(=O)c4c(O)cccc4C(=O)C32O)C1 (centres unmarked) [FR131661]
- IC50 [1]: 22 µM

SMILES: CC1=CC(=O)C2(O)C(O)(CCC3(SCC(NC(=O)OC(C)(C)C)C(=O)O)C(=O)c4c(O)cccc4C(=O)C32O)C1 (centres unmarked) [FR131662]
- IC50 [1]: 4.33 µM

SMILES: CC1=CC(=O)C2(O)C(O)(CCC3(SCC(NC(=O)Cc4ccc(Cl)cc4)C(=O)O)C(=O)c4c(O)cccc4C(=O)C32O)C1 (centres unmarked) [FR131663]
- IC50 [1]: 38.7 µM

SMILES: CC1=CC(=O)C2(O)C(O)(CCC3(SCC(NC(=O)C(C)C)C(=O)O)C(=O)c4c(O)cccc4C(=O)C32O)C1 (centres unmarked) [FR131667]
- IC50 [1]: 106 µM

SMILES: CCCCCC(=O)NC(CSC12CCC3(O)CC(C)=CC(=O)C3(O)C1(O)C(=O)c1cccc(O)c1C2=O)C(=O)O (centres unmarked) [FR131668]
- IC50 [1]: 17 µM

SMILES: COC(=O)C(CSC12CCC3(O)CC(C)=CC(=O)C3(O)C1(O)C(=O)c1cccc(O)c1C2=O)NC(C)=O (centres unmarked) [FR134624]
- IC50 [1]: 10.5 µM

SMILES: COC(=O)C(CSC12CCC3(OC(C)=O)CC(C)=CC(=O)C3(OC(C)=O)C1(OC(C)=O)C(=O)c1cccc(OC(C)=O)c1C2=O)NC(C)=O (centres unmarked) [FR134625]
- IC50 [1]: 356 µM

SMILES: CC(=O)NC(CSC12CCC3(O)CC(C)=CC(=O)C3(O)C1(O)C(=O)c1cccc(O)c1C2=O)C(=O)NCCO (centres unmarked) [FR134761]
- IC50 [1]: 10.3 µM

SMILES: COC(=O)[C@H](Cc1c[nH]c2ccccc12)NC(=O)C(CSC12CCC3(O)CC(C)=CC(=O)C3(O)C1(O)C(=O)c1cccc(O)c1C2=O)NC(C)=O (some centres unmarked) [FR134762]
- IC50 [1]: 11.9 µM

SMILES: CC[C@H](C)[C@H](NC(=O)C(CSC12CCC3(O)CC(C)=CC(=O)C3(O)C1(O)C(=O)c1cccc(O)c1C2=O)NC(C)=O)C(=O)N[C@@H](Cc1c[nH]c2ccccc12)C(=O)OC (some centres unmarked) [FR134763]
- IC50 [1]: 37.2 µM

SMILES: CC[C@H](C)[C@H](NC(=O)C(CSC12CCC3(O)CC(C)=CC(=O)C3(O)C1(O)C(=O)c1cccc(O)c1C2=O)NC(C)=O)C(=O)N[C@@H](Cc1c[nH]c2ccccc12)C(=O)O (some centres unmarked) [FR134764]
- IC50 [1]: 12 µM

SMILES: CC1=CC(=O)C2(O)C(O)(C1)CC(O)C1(SCC(N)C(=O)O)C(=O)c3c(O)cccc3C(=O)C12O (centres unmarked) [FR134851]
- Solubility ([2]; chloroform): insoluble
- Solubility ([2]; ethanol): soluble
- Solubility ([2]; methanol): soluble
- Solubility ([2]; n-hexane): insoluble
- Solubility ([2]; water): sparingly soluble
- IC50 [1]: 20.7 µM

SMILES: CC(=O)NC(CSC12CCC3(O)CC(C)=CC(=O)C3(O)C1(O)C(=O)c1cccc(O)c1C2=O)C(=O)O (centres unmarked) [FR901366]
- inhibition at 100 µM [3]: 39%
- inhibition at 10 µM [3]: 15%
- Inhibition of endothelin pressor response ([4]; 5 min after administration): 27.2%
- Inhibition of endothelin pressor response ([4]; 10 min after administration): 50.0%
- Inhibition of endothelin pressor response ([4]; 20 min after administration): 63.3%
- Inhibition of endothelin pressor response ([4]; 30 min after administration): 53.8%
- Inhibition of endothelin pressor response ([4]; 60 min after administration): 66.6%
- Inhibition of endothelin pressor response ([4]; 120 min after administration): 50.0%
- Solubility ([2]; acetone): soluble
- Solubility ([2]; chloroform): sparingly soluble
- Solubility ([2]; hexane): insoluble
- Solubility ([2]; methanol): soluble
- Solubility ([2]; water): insoluble
- IC50 [1]: 5.97 µM

SMILES: CC(=O)NC(CSC12C(=O)c3c(O)cccc3C(=O)C1(O)C1(O)C(=O)C=C(C)CC1(O)CC2O)C(=O)O (centres unmarked) [FR901367]
- inhibition at 100 µM [3]: 75%
- inhibition at 10 µM [3]: 38.6%
- Solubility ([2]; acetone): sparingly soluble
- Solubility ([2]; ethanol): soluble
- Solubility ([2]; ethyl acetate): sparingly soluble
- Solubility ([2]; methanol): soluble
- Solubility ([2]; n-hexane): insoluble
- Solubility ([2]; water): sparingly soluble
- IC50 [1]: 0.672 µM
- competition with ^125 I-endothelin for binding to porcine aorta membrane fractions ([1]; result in words): competes with ^125 I-endothelin for binding
